These are literature values, as cited in US20120321577A1, “Skin-whitening composition containing tyrosinase inhibitor” (priority 2011, published 2012).

The structures appear in SMILES notation.

For this data set the following is noted: conventionally.

With `NC[C@H]1CC[C@H](C(=O)O)CC1` [tranexamic acid], the “concentration needed to give whitening effect” value was “higher than 3%”.
